Test results reported in US20260158031A1, “AROMATIC HETEROCYCLIC COMPOUND, PHARMACEUTICAL COMPOSITION CONTAINING THE SAME, AND USE THEREOF” (HANG ZHOU YUHONG PHARMATECH CO., LTD., priority 2021, published 2026).

Experiments:
[1] = tested on: collagen-induced mouse arthritis model; experiment: Collagen-induced mouse arthritis model (mCIA); format: in vivo, DBA/1J mice; conditions: female DBA/1J CIA mice, 50 mg/kg once a day, FIG. 2; for arthritis scores: compared to the model group
Text: Objective of Experiment: to test the immunosuppressive activity of YZ001052 in a mCIA model. PF-06651600 was used as a positive control compound.
Complete and incomplete Freund's adjuvants were mixed with a chicken type II collagen solution in equal proportions to form an emulsifier. Except for the blank control group, on Day 0, a mixture of a complete Freund's adjuvant and the chicken type II collagen solution was subcutaneously injected into the tail roots and thigh roots of the mice, with 100 μL being injected subcutaneously at the tail root of each mouse; and 50 μL being injected subcutaneously at each of the two thigh roots of each mouse (primary immunization). On day 21, the mice were subcutaneously injected with 200 μL of a mixture of an incomplete Freund's adjuvant and the chicken type II collagen solution as a booster injection (second immunization). […] Measurement of paw thickness: the thicknesses of the left and right hind feet of the mice were measured with a vernier caliper to serve as the paw swelling degree and recorded, and the detection frequency was once every 3 days.

[2] = tested on: p-STAT5 under stimulation with IL-15 in PBMCs; experiment: IL-15 stimulated hPBMC p-STAT5 ELISA; format: cell-based; conditions: Homo sapiens, PBMC, 45 min compound, 30 min IL-15, ELISA
Procedure: Based on the mechanism of the JAK-STAT pathway, the cytokine IL-15 was adopted to stimulate hPBMC cells, and the downstream STAT5 phosphorylation level was taken as a detection indicator to evaluate the effect of the compound on the JAK-STAT pathway.
• 1. Seeding plate for PBMC cell counting: 90 μL of PBMCs were seeded in a 96-well plate (PBMC cell density: 80,000/well). • 2. Treatment of compound to be tested: after the cells were seeded on the plate, administration treatment was performed immediately. The drug to be tested was 5 μL/well (with final concentration of 1, 0.5, 0.1, 0.05, 0.01, and 0.005 μM), and the plate was incubated in a 37° C. incubator for 45 min. • 3. Stimulation with cytokine IL-15: the cells were stimulated with 5 μL of IL-15 and incubated at 37° C. for 30 min. • 4. Protein sample collection: the cells were collected in a centrifuge tube and centrifuged for 5 min. The supernatant was discarded after the centrifuging, and the cells were lysed with 1× Cell Extraction Buffer PTR. • 5. p-STAT5 detection: detection was conducted according to the requirements of a ELISA kit.
Experimental results: IC50 values of compounds on p-STAT5 under stimulation with IL-15 in PBMCs

[3] = tested on: DSS-induced mouse inflammatory bowel disease model; experiment: DSS-induced mouse inflammatory bowel disease model; format: in vivo; conditions: female C57BL/6 mice, 5% DSS, 50 mg/kg once a day, day 8, compared with model group, FIG. 3
Procedure: Objective of Experiment: to test the immunosuppressive activity of YZ001052 in a DSS-induced mouse inflammatory bowel disease model. PF-06651600 was used as a positive control compound.
50 g of DSS was weighed, added with 1,000 mL of sterile water, formulated into a 5% DSS solution, and filtered with a 0.22 μm filter membrane. From day 0, the blank group was given drinking water without DSS, and the other experimental groups were given drinking water containing 5% DSS. All mice were sacrificed on day 8. After the experiment was ended, the colorectum was collected, and photographed, and its length was measured for statistical analysis.

[4] = tested on: radiation-induced lung injury mouse model; experiment: Mouse model of acute radiation-induced lung injury; format: in vivo; conditions: female C57BL/6 mice, 22.5 Gy whole lung irradiation, 30 mg/kg q.d, 3 weeks after modeling
Procedure: 18 female C57BL/6 mice were randomly divided into 3 groups, namely a blank control group, a group treated with irradiation alone, and a group intervened with irradiation+drug YZ001052 (30 mg/kg q.d), with 6 mice in each group.
The mice were anesthetized by intraperitoneal injection of 1% pentobarbital sodium, and were subjected to a single whole lung irradiation at 22.5 Gy, with 220 KV of X-rays by using a small animal radiation research platform (SARRP). After the irradiation was completed, the mice were fed routinely.
3 weeks after modeling, the mice were anesthetized and dissected. The lung tissue was exposed, the left lung was ligated, an open tracheotomy was performed, the lung was lavaged with cold PBS, and the bronchoalveolar lavage fluid (BALF) was collected and subjected to refrigerated centrifugation at 4° C.
The supernatant was collected, and detected for the content of the inflammatory factor TNF-α by ELISA.
The cell pellet of the alveolar lavage fluid was resuspended in 200 μL PBS and used for counting of white blood cells (WBCs).

SRBC mouse model = experiment: SRBC-induced delayed type hypersensitivity (DTH) in mice; format: in vivo; conditions: male Balb/c mice, 100 mg/kg by gavage once a day, day 0 to day 6, FIG. 1
Procedure: PF-06651600 was used as a positive control compound.
Drug preparation: the compound was weighed and added with a 0.5% CMC-Na solution to prepare a drug suspension (with an administration dose of 10 mg/mL).
Induction of delayed type hypersensitivity (DTH) and administration: 30 male Balb/c mice were weighed and randomly divided into 6 groups according to body weight, with 5 mice in each group. The experimental period lasted for 7 days in total. On day 0, the mice were subcutaneously injected with sheep red blood cells (SRBCs) for sensitization. From day 0, the mice were administrated with 100 mg/kg by gavage (once a day) until day 6. On day 6, SRBCs were injected into the right hind foot pad of the mice for excitation. On day 7 of the experiment, measurements were conducted, photographs were taken, and the experiment was ended.
Pharmacodynamic detection indicators of disease models: the detection and observation indicators were the degree of redness and swelling and detected thicknesses of paw pads of the mice in the model group as induced by SRBC. The thickness of the right paw was measured as the baseline before the SRBC injection excitation on day 6. At the end of the experiment […], the thickness of the right paw was measured again, and the difference in thickness of the paw before and after the second injection was calculated.
Statistical processing: experimental data was expressed as mean±standard deviation (Mean±SD). All data was statistically analyzed using a T-test. P<0.05 was considered to be statistically different.

TYK2 = TYK2 (Homo sapiens, UniProt P29597); experiment: Kinase selectivity experiment, mobility shift assay, TYK2; format: biochemical; conditions: Example 137
TYK2, sequence (P29597 whole entry, species assumed): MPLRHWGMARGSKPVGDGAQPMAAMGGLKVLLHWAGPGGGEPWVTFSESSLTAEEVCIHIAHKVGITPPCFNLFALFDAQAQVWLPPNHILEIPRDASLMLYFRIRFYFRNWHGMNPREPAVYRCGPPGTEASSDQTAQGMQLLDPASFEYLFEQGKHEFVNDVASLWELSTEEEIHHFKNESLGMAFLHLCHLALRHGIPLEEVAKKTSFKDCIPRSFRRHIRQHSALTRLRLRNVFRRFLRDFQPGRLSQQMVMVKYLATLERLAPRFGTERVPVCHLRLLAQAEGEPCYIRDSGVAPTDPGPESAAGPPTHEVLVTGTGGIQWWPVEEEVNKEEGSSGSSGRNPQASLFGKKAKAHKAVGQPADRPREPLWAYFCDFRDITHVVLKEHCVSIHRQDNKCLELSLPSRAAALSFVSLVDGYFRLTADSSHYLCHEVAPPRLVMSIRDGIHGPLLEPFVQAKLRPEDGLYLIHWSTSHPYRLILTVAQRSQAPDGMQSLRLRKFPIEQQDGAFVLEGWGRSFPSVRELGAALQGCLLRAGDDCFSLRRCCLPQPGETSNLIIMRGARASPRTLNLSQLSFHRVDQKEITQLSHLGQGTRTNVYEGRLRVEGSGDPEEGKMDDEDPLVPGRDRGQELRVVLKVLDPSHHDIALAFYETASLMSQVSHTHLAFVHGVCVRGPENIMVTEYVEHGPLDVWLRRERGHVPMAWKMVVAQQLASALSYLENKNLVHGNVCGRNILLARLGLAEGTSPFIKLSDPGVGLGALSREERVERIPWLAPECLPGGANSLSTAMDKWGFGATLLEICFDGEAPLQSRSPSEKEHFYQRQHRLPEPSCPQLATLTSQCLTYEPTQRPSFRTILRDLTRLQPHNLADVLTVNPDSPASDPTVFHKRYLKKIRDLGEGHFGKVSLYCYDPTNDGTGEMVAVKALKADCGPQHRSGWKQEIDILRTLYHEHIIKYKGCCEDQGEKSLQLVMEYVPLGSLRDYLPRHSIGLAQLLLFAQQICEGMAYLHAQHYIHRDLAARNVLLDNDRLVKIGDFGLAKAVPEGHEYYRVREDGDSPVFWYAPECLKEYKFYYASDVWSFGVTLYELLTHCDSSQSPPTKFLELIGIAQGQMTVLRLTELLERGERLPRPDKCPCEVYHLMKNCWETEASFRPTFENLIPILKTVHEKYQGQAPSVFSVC
Procedure: (§1) The compounds were diluted with gradients into solutions with a final concentration of 100 times in a 384-well plate. Then 250 nL was transferred to a 384 reaction plate with Echo550 for later use. […]

JAK2 = JAK2 (Homo sapiens, UniProt O60674); experiment: Kinase selectivity experiment, mobility shift assay, JAK2; format: biochemical; conditions: Example 137
JAK2, sequence (O60674 whole entry, species assumed): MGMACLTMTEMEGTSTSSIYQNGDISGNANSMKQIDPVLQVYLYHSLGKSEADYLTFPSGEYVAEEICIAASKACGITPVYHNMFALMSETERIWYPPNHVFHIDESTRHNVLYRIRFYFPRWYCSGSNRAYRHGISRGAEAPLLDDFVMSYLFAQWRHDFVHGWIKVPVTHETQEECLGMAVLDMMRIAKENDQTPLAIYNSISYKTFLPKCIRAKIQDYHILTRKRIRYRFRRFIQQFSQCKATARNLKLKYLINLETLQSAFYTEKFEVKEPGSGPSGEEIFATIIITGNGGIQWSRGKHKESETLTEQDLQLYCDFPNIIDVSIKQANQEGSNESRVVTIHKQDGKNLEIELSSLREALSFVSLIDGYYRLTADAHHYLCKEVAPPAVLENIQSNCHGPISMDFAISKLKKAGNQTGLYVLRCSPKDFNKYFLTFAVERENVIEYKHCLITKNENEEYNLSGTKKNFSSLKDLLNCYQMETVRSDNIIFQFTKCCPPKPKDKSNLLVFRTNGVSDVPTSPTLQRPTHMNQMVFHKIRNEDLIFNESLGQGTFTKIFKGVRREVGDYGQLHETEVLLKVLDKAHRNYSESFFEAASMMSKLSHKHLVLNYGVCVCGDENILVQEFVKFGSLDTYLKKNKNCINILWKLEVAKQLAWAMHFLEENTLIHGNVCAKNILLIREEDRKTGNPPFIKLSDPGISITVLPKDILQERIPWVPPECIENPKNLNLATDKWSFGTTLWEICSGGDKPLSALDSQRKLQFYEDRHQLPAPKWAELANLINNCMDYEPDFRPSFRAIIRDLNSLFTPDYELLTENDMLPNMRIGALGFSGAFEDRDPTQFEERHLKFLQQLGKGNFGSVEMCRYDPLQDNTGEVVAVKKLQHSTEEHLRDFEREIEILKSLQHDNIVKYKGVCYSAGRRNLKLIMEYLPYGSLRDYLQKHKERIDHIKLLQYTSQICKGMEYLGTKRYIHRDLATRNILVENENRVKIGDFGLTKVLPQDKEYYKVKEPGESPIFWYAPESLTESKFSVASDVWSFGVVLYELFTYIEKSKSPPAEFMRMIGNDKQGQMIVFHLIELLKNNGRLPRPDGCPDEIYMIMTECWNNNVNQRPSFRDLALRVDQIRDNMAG
Procedure: as §1

JAK1 = JAK1 (Homo sapiens, UniProt P23458); experiment: Kinase selectivity experiment, mobility shift assay, JAK1; format: biochemical; conditions: Example 137
JAK1, sequence (P23458 whole entry, species assumed): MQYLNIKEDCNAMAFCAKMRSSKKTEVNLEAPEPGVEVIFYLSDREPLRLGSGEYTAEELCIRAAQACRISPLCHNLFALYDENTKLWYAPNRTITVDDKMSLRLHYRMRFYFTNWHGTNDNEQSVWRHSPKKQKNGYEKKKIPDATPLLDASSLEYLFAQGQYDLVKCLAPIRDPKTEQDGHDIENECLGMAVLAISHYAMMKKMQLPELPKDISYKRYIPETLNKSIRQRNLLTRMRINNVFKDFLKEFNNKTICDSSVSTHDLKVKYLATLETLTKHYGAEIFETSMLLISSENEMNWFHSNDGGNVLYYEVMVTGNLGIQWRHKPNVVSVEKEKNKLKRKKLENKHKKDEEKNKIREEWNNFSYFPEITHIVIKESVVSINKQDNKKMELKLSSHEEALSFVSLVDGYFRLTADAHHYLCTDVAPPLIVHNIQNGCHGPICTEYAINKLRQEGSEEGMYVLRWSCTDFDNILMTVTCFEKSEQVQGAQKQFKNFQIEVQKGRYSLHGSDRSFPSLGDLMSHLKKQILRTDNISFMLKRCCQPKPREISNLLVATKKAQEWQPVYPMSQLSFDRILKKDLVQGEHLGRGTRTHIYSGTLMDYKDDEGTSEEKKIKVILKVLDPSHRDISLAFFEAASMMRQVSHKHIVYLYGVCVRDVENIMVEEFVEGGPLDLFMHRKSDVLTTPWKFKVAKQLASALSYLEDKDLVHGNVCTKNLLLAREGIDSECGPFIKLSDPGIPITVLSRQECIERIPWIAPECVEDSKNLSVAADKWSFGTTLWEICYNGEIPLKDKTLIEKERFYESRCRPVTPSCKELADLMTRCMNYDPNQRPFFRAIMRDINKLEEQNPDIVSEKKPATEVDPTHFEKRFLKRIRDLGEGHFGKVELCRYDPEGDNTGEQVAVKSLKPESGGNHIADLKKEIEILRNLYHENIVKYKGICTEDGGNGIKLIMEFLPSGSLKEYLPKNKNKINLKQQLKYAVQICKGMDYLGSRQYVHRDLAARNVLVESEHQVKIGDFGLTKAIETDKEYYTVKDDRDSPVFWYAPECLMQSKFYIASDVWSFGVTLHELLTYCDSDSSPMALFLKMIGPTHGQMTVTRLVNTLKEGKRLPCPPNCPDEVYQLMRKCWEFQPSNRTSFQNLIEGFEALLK
Procedure: as §1

JAK3 kinase = molecular target: T1, JAK3 kinase (Homo sapiens, UniProt P52333); experiment: Mobility shift assay, in vitro JAK3 kinase inhibitory activity; format: biochemical
T1 sequence (P52333 1-1124): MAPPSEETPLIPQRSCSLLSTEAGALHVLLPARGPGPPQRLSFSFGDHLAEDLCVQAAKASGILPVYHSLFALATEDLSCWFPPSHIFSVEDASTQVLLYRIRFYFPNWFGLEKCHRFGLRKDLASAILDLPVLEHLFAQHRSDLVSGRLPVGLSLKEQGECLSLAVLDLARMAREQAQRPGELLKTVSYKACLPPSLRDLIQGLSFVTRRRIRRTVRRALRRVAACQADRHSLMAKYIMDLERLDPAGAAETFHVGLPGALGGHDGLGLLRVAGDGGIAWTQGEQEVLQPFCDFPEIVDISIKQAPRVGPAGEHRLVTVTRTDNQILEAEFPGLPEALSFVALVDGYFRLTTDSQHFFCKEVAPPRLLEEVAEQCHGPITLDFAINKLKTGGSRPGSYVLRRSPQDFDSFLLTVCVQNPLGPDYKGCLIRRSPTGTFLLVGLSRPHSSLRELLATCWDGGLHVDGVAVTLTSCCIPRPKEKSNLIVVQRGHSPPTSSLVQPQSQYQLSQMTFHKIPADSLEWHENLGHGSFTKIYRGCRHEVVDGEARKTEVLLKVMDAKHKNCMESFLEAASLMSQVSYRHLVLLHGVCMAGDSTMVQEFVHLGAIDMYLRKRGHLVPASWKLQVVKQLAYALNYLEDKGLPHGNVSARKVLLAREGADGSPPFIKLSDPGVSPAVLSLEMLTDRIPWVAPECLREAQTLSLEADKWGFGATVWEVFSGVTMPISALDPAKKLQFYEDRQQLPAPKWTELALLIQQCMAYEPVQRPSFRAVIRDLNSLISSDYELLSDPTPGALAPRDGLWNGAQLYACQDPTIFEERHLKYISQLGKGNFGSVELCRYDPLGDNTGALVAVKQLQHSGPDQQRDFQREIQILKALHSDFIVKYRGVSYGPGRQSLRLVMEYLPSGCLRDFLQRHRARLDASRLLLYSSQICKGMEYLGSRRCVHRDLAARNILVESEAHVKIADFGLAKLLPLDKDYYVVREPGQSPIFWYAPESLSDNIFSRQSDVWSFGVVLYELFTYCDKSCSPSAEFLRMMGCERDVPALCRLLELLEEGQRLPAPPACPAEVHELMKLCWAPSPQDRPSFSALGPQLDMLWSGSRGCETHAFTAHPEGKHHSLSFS
Procedure: A Mobility shift assay was adopted to detect compounds to be tested (see list below) for in vitro inhibitory activity on the enzyme activity of JAK3 kinase.
The compound was dissolved in 100% DMSO to formulate a 10 mM stock solution, which was stored in a −20° C. refrigerator with protection from light.
The compounds were diluted with gradients into solutions with a final concentration of 100 times in a 384-well plate. Then 250 nL was transferred to a 384 reaction plate with Echo550 for later use. 250 nL of 100% DMSO was added into the negative control well and the positive control well respectively. • (3) A kinase solution with a final concentration of 2.5 times was formulated with the 1× Kinase buffer. • (4) The compound wells and the positive control wells were added with 10 μL of the kinase solution with the final concentration of 2.5 times respectively; the negative control wells were added with 10 μL of the 1× Kinase buffer. • (5) The wells were centrifuged at 1,000 rpm for 30 seconds, mixed well by shaking, and then incubated at room temperature for 10 minutes. • (6) A mixed solution of ATP and Kinase substrate 22 with a final concentration of 25/15 times was formulated with a 1× Kinase buffer. • (7) The compound wells, positive control wells and negative control wells of the 384 reaction plate were respectively added with 15 μL of a mixed solution of ATP and the substrate at the final concentration of 25/15 times to start the reaction. • (8) The 384-well plate was centrifuged at 1,000 rpm for 30 seconds, mixed well by shaking, and then incubated at room temperature for 30 minutes. • (9) 30 μL of a detection termination solution was added to stop the kinase reaction, centrifuged at 1,000 rpm for 30 seconds, and mixed well by shaking. • (10) The conversion rate was read with Caliper EZ Reader.
% Inhibition=(Conversion %_max−Conversion %_sample)/(Conversion %_max−Conversion %_min)×100 (1) Calculation Equation
Among them: Conversion %_sample was the conversion rate reading of the sample; Conversion %_min was the mean value of the negative control wells, representing the conversion rate reading of the wells without enzyme activity; Conversion % max was the mean value of the positive control wells, representing the conversion rate reading of the wells without compound inhibition; and % Inhibition represented the percentage inhibition rate.
• by taking the log value of concentration as the X axis and taking the percent inhibition rate as the Y axis, a dose-response curve is fitted by adopting the log (inhibitor) vs. response-Variable slope of the analysis software GraphPad Prism 5, so as to obtain the IC50 value of each compound on the enzyme activity. The calculation equation was Y=Bottom+ (Top−Bottom)/(1+10^((Log IC50−X)*HillSlope)).

[5] = mobility shift assay, Example 136

SMILES | swelling of the paws [1] | arthritis scores [1] | IC50 [2] [nM] | immunosuppressive effect on SRBC-induced delayed type hypersensitivity (right paw thickness) (SRBC mouse model) | IC50 (TYK2) [nM] | IC50 (JAK2) [nM] | IC50 (JAK1) [nM] | IC50 (JAK3 kinase; [5]) [nM] | further results
C=CC(=O)N1C[C@H](Nc2ncnc3[nH]ccc23)CC[C@@H]1C [PF-06651600, reference compound] | improved to varying degrees | significantly reduced | 85 |  |  |  |  |  | 
C=CC(=O)N1CCc2c(c(-c3ccnc4[nH]ccc34)nn2C)C1 [YZ001052] | improved to varying degrees | significantly reduced |  | significant immunosuppressive effects |  |  |  |  | length of the colorectum [3]: significantly increased; TNF-α level in the alveolar lavage fluid ([4]; ELISA, FIG. 4): good inhibitory effect; number of white blood cells (inflammatory cell infiltrates) in the alveolar lavage fluid ([4]; FIG. 5): significantly reduce
C=CC(=O)N1Cc2c(-c3ccnc4[nH]ccc34)cnn2C[C@H]1C [YZ001001] |  |  |  |  | > 10000 | > 10000 | > 10000 |  | 
C[C@@H]1Cn2ncc(-c3ccnc4[nH]ccc34)c2CN1C(=O)/C=C/CN(C)C [YZ001005] |  |  |  |  | > 10000 | > 10000 | > 10000 |  | IC50 (JAK3 kinase; selectivity table, Example 137): 16 nM
C=C(F)C(=O)N1Cc2c(-c3ccnc4[nH]ccc34)cnn2C[C@H]1CCS(C)(=O)=O [YZ001075] |  |  | 31.7 |  |  |  |  | 1.2 | 
C=CC(=O)N1CCc2[nH]nc(-c3ccnc4[nH]ccc34)c2C1 [YZ001065] |  |  | 26.3 | significant immunosuppressive effects |  |  |  | 0.7 | 
